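Following 48 hours of exposure in 96-well plates, responses at five concentrations were used to interpolate endpoints linearly. TGI denotes the concentration required for complete inhibition of growth.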
Experiments:
Assay in all cases: inhibition of tumour cell growth, NCI panel, 48 h
SK-MEL-28 melanoma = system: SK-MEL-28 melanoma
SW-620 colon = system: SW-620 colon
HCT-15 colon = system: HCT-15 colon
HCT-116 colon = system: HCT-116 colon
K-562 leukemia = system: K-562 leukemia
NCI-H460 lung = system: NCI-H460 lung
OVCAR-8 ovarian = system: OVCAR-8 ovarian
T-47D breast = system: T-47D breast
HS 578T breast = system: HS 578T breast
PC-3 prostate = system: PC-3 prostate
SF-539 CNS = system: SF-539 CNS
UACC-62 melanoma = system: UACC-62 melanoma
MCF7 breast = system: MCF7 breast
MOLT-4 leukemia = system: MOLT-4 leukemia
COLO 205 colon = system: COLO 205 colon
MDA-MB-435 = system: MDA-MB-435
NCI-H23 lung = system: NCI-H23 lung
BT-549 breast = system: BT-549 breast
RPMI-8226 leukemia = system: RPMI-8226 leukemia
MDA-MB-231 breast = system: MDA-MB-231 breast
NCI-H522 lung = system: NCI-H522 lung
SN12C renal = system: SN12C renal
A549 NSCLC = system: A549 NSCLC
HOP-62 NSCLC = system: HOP-62 NSCLC
SNB-75 CNS = system: SNB-75 CNS
OVCAR-3 ovarian = system: OVCAR-3 ovarian
CAKI-1 renal = system: CAKI-1 renal
SK-MEL-2 melanoma = system: SK-MEL-2 melanoma
NCI/ADR-RES ovarian = system: NCI/ADR-RES ovarian
SF-295 CNS = system: SF-295 CNS
M14 melanoma = system: M14 melanoma
EKVX NSCLC = system: EKVX NSCLC
IGROV1 ovarian = system: IGROV1 ovarian
UACC-257 melanoma = system: UACC-257 melanoma
SR leukemia = system: SR leukemia
MALME-3M melanoma = system: MALME-3M melanoma
SF-268 CNS = system: SF-268 CNS
LOX IMVI melanoma = system: LOX IMVI melanoma
RXF 393 renal = system: RXF 393 renal
TK-10 renal = system: TK-10 renal
OVCAR-5 ovarian = system: OVCAR-5 ovarian
786-0 renal = system: 786-0 renal
HCC-2998 colon = system: HCC-2998 colon
U251 CNS = system: U251 CNS
OVCAR-4 ovarian = system: OVCAR-4 ovarian
NCI-H226 lung = system: NCI-H226 lung
SK-MEL-5 melanoma = system: SK-MEL-5 melanoma
DU-145 prostate = system: DU-145 prostate
KM12 colon = system: KM12 colon
ACHN renal = system: ACHN renal
HT29 colon = system: HT29 colon
UO-31 renal = system: UO-31 renal
SNB-19 CNS = system: SNB-19 CNS
MDA-N = system: MDA-N
SK-OV-3 ovarian = system: SK-OV-3 ovarian

Work on O=C1c2ccccc2-c2c1c1ccccc1c(=O)n2-c1cccnc1 yielded a TGI (SK-MEL-28 melanoma) of over 100 µM, a TGI (SW-620 colon) of over 100 µM and a TGI (HCT-15 colon) of over 100 µM. For the same molecule, the TGI (HCT-116 colon) was over 100 µM, the TGI (K-562 leukemia) was over 100 µM and the TGI (NCI-H460 lung) was over 100 µM. For the same molecule, the TGI (OVCAR-8 ovarian) was over 100 µM, the TGI (T-47D breast) was over 100 µM and the TGI (HS 578T breast) was over 100 µM. For the same molecule, the TGI (PC-3 prostate) was over 100 µM, the TGI (SF-539 CNS) was over 71.1 µM and the TGI (UACC-62 melanoma) was over 85.8 µM. For the same molecule, the TGI (MCF7 breast) was over 100 µM, the TGI (MOLT-4 leukemia) was over 28.4 µM and the TGI (COLO 205 colon) was over 100 µM. It also gave a TGI (MDA-MB-435) of over 100 µM, a TGI (NCI-H23 lung) of over 100 µM and a TGI (BT-549 breast) of over 100 µM. For the same molecule, the TGI (RPMI-8226 leukemia) was over 100 µM, the TGI (MDA-MB-231 breast) was over 100 µM and the TGI (NCI-H522 lung) was 39.3 µM. For the same molecule, the TGI (SN12C renal) was over 100 µM, the TGI (A549 NSCLC) was over 100 µM and the TGI (HOP-62 NSCLC) was 41.8 µM. It also gave a TGI (SNB-75 CNS) of over 100 µM, a TGI (OVCAR-3 ovarian) of over 100 µM and a TGI (CAKI-1 renal) of over 100 µM. It also gave a TGI (SK-MEL-2 melanoma) of over 100 µM, a TGI (NCI/ADR-RES ovarian) of over 100 µM and a TGI (SF-295 CNS) of over 100 µM. It also gave a TGI (M14 melanoma) of over 100 µM, a TGI (EKVX NSCLC) of over 100 µM and a TGI (IGROV1 ovarian) of over 100 µM. The TGI (UACC-257 melanoma) was over 100 µM, the TGI (SR leukemia) was over 100 µM and the TGI (MALME-3M melanoma) was over 100 µM. The TGI (SF-268 CNS) was over 100 µM, the TGI (LOX IMVI melanoma) was over 100 µM and the TGI (RXF 393 renal) was over 100 µM. The TGI (TK-10 renal) was over 100 µM, the TGI (OVCAR-5 ovarian) was over 100 µM and the TGI (786-0 renal) was 44.7 µM. The TGI (HCC-2998 colon) was over 100 µM, the TGI (U251 CNS) was over 100 µM and the TGI (OVCAR-4 ovarian) was over 100 µM. The TGI (NCI-H226 lung) was over 100 µM, the TGI (SK-MEL-5 melanoma) was over 100 µM and the TGI (DU-145 prostate) was over 100 µM. For the same molecule, the TGI (KM12 colon) was over 100 µM, the TGI (ACHN renal) was over 100 µM and the TGI (HT29 colon) was over 100 µM. For the same molecule, the TGI (UO-31 renal) was over 100 µM, the TGI (SNB-19 CNS) was over 100 µM and the TGI (MDA-N) was over 100 µM. It also gave a TGI (SK-OV-3 ovarian) of over 100 µM.

From PubChem BioAssay (NCI)
